In the NIST ThermoML archive (doi:10.1016/j.jct.2017.02.014):

Legend:
[1] = heat capacity at constant pressure per volume; xn = mol fraction of the nth substance listed; settings: 102.6 kPa, Liquid, DSC, x1 = 0.118
[2] = refractive index (other wavelength) (dimensionless); xn = mol fraction of the nth substance listed; settings: 100 kPa, Liquid, Wavelength=632.8 nm, minimum deviation angle method

CCCC[n+]1ccccc1.F[B-](F)(F)F [1-butylpyridinium tetrafluoroborate] + CCO
[1]
Settings | heat capacity [J/K/m3]
291.64 K | 2400000
291.84 K | 2413000
292.04 K | 2409000
292.24 K | 2412000
292.44 K | 2447000
292.64 K | 2446000
292.84 K | 2430000
293.04 K | 2446000
293.24 K | 2456000
293.44 K | 2452000
293.64 K | 2454000
293.84 K | 2466000
294.04 K | 2479000
294.24 K | 2512000
294.44 K | 2465000
294.64 K | 2512000
294.84 K | 2537000
295.04 K | 2539000
295.24 K | 2557000
295.44 K | 2564000
295.64 K | 2619000
295.84 K | 2578000
296.04 K | 2655000
296.24 K | 2606000
296.44 K | 2659000
296.64 K | 2847000
296.86 K | 2825000
297.04 K | 2338000
297.24 K | 2271000
297.44 K | 2220000
297.64 K | 2228000
297.84 K | 2203000
298.04 K | 2201000
298.24 K | 2198000
298.44 K | 2180000
298.64 K | 2187000
298.84 K | 2145000
299.04 K | 2169000
299.24 K | 2164000
299.44 K | 2169000
299.64 K | 2152000
299.84 K | 2153000
300.04 K | 2150000
300.24 K | 2151000
300.44 K | 2144000
300.64 K | 2130000
300.84 K | 2137000
301.24 K | 2132000
301.44 K | 2139000
301.64 K | 2140000
301.84 K | 2124000
302.04 K | 2130000
302.24 K | 2117000
302.44 K | 2124000
302.64 K | 2130000
302.84 K | 2122000
303.04 K | 2129000
303.24 K | 2131000
303.44 K | 2121000
303.63 K | 2121000
303.83 K | 2127000
304.04 K | 2126000
304.24 K | 2122000
304.44 K | 2130000
304.63 K | 2120000
304.83 K | 2123000
305.04 K | 2117000
305.24 K | 2113000
305.44 K | 2107000
305.63 K | 2112000
306.08 K | 2110000
306.51 K | 2108000
306.95 K | 2108000
307.39 K | 2107000
307.83 K | 2106000
308.26 K | 2106000
308.7 K | 2105000
309.14 K | 2104000
309.58 K | 2104000
310.02 K | 2104000
310.45 K | 2104000
310.89 K | 2105000
311.33 K | 2103000
311.77 K | 2102000
312.2 K | 2102000
312.64 K | 2102000
313.08 K | 2103000
313.52 K | 2101000
313.96 K | 2103000
314.39 K | 2101000
314.83 K | 2103000
315.27 K | 2102000
315.71 K | 2103000
316.14 K | 2102000
316.58 K | 2103000
317.02 K | 2103000
317.46 K | 2103000
317.89 K | 2105000
318.33 K | 2104000
318.77 K | 2106000
319.21 K | 2105000
319.65 K | 2107000
320.08 K | 2107000
320.52 K | 2108000
320.96 K | 2109000
321.4 K | 2109000
321.84 K | 2109000
322.27 K | 2110000
322.71 K | 2111000
323.15 K | 2110000

[2]
Settings | refractive index
281.73 K, x1 = 1 | 1.4481
282.78 K, x1 = 1 | 1.4478
284.05 K, x1 = 0.518 | 1.4307
284.14 K, x1 = 1 | 1.4475
284.68 K, x1 = 0.394 | 1.4224
285.33 K, x1 = 0.518 | 1.4304
285.74 K, x1 = 1 | 1.4471
286.42 K, x1 = 0.394 | 1.4219
286.94 K, x1 = 1 | 1.4468
287.46 K, x1 = 0.02 | 1.3684
287.51 K, x1 = 0.518 | 1.4298
287.68 K, x1 = 0.394 | 1.4215
288.24 K, x1 = 1 | 1.4464
288.69 K, x1 = 0.518 | 1.4295
288.71 K, x1 = 0.02 | 1.3679
289.37 K, x1 = 0.394 | 1.4211
289.38 K, x1 = 1 | 1.4461
289.82 K, x1 = 0.02 | 1.3675
290.14 K, x1 = 0.518 | 1.429
290.31 K, x1 = 0.394 | 1.4207
290.37 K, x1 = 1 | 1.4458
290.46 K, x1 = 0.313 | 1.414
291.26 K, x1 = 0.02 | 1.3669
291.42 K, x1 = 0.394 | 1.4204
291.42 K, x1 = 0.518 | 1.4287
292.08 K, x1 = 0.313 | 1.4134
292.15 K, x1 = 1 | 1.4454
292.64 K, x1 = 0.02 | 1.3663
293.1 K, x1 = 0.313 | 1.4131
293.41 K, x1 = 1 | 1.4451
294.23 K, x1 = 0.313 | 1.4128
294.38 K, x1 = 0.02 | 1.3657
295 K, x1 = 1 | 1.4446
295.32 K, x1 = 0.313 | 1.4124
296.19 K, x1 = 0.258 | 1.4062
296.35 K, x1 = 0.199 | 1.3993
296.35 K, x1 = 0.313 | 1.4121
296.89 K, x1 = 1 | 1.444
296.98 K, x1 = 0.06 | 1.3745
296.98 K, x1 = 0.142 | 1.3902
297.25 K, x1 = 0.095 | 1.3817
297.52 K, x1 = 0.258 | 1.4056
298.06 K, x1 = 0.142 | 1.3899
298.21 K, x1 = 0.06 | 1.374
298.51 K, x1 = 0.199 | 1.3986
298.56 K, x1 = 0.095 | 1.3813
298.9 K, x1 = 0.258 | 1.4052
299.34 K, x1 = 0.142 | 1.3895
299.43 K, x1 = 0.06 | 1.3736
299.58 K, x1 = 0.199 | 1.3982
299.67 K, x1 = 0.095 | 1.3809
299.98 K, x1 = 0.258 | 1.4048
300.34 K, x1 = 0.142 | 1.3892
300.79 K, x1 = 0.095 | 1.3805
300.89 K, x1 = 0.06 | 1.3731
300.95 K, x1 = 0.258 | 1.4046
301.1 K, x1 = 0.199 | 1.3977
301.77 K, x1 = 0.095 | 1.3802
301.77 K, x1 = 0.142 | 1.3886
301.92 K, x1 = 0.258 | 1.4043
302.08 K, x1 = 0.06 | 1.3726
302.16 K, x1 = 0.199 | 1.3974
302.93 K, x1 = 0.095 | 1.3798
302.94 K, x1 = 0.142 | 1.3883
303.3 K, x1 = 0.199 | 1.397
303.31 K, x1 = 0.06 | 1.3722
